This note sets out measurements from PubChem BioAssay (NCI).

Some test systems named below: 786-0 renal; A549 NSCLC; COLO 205 colon; DLD-1 colon; HCT-116 colon; IGROV1 ovarian; LOX IMVI melanoma; OVCAR-8 ovarian; RXF 393 renal; SF-295 CNS; SK-MEL-2 melanoma; SN12C renal; U251 CNS; UACC-257 melanoma; MDA-MB-231 breast; NCI-H522 lung; OVCAR-5 ovarian; PC-3 prostate; DU-145 prostate; MDA-N.
Assay in all cases: NCI-60 cell line screen, 48 h

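48-hour exposure; five concentrations; linearly interpolated endpoints. The concentration for full growth arrest is given as TGI.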 Where only a bound is given, the exact number is not on record here.

Take `CC1(OCc2ccccc2)C(=O)N2C1N(C(=O)OCc1ccccc1)CC2(C)C` (stereo unspecified): the TGI with 786-0 renal, in the assay on A549 NSCLC, in the assay on COLO 205 colon, with DLD-1 colon, with HCT-116 colon and in the assay on IGROV1 ovarian was above 100 µM each time. The TGI with LOX IMVI melanoma, in the assay on OVCAR-8 ovarian, in the assay with RXF 393 renal, in the assay on SF-295 CNS, with SK-MEL-2 melanoma and in the assay on SN12C renal was above 100 µM each time. In addition, the TGI in the assay with U251 CNS and in the assay with UACC-257 melanoma was above 100 µM in each case.
Regarding `SCc1ccc(-c2ccc(CS)cc2)cc1`, the TGI with 786-0 renal came out at 59.5 µM; with A549 NSCLC, 39.6 µM; in the assay on COLO 205 colon, 37.4 µM; with DLD-1 colon, 34.1 µM; in the assay on HCT-116 colon, 17.8 µM; in the assay on IGROV1 ovarian it was 32.5 µM. Besides, the TGI amounted to 15 µM in the assay on LOX IMVI melanoma; 31 µM with MDA-MB-231 breast; 37.7 µM in the assay with NCI-H522 lung; 27 µM in the assay on OVCAR-5 ovarian; 53.7 µM in the assay on OVCAR-8 ovarian; 34 µM in the assay on PC-3 prostate. Moreover, the TGI is 32.9 µM with RXF 393 renal; 24.9 µM in the assay on SF-295 CNS; 41.5 µM with SK-MEL-2 melanoma; above 81.2 µM with SN12C renal; 31.1 µM in the assay with U251 CNS; 45.2 µM in the assay with UACC-257 melanoma.
Regarding `Cc1ccc([N+]2=NC(c3ccc([N+](=O)[O-])cc3)=NN(c3ccccc3)C2)cc1`, the TGI with 786-0 renal, in the assay with A549 NSCLC, with COLO 205 colon, in the assay with DLD-1 colon, in the assay with HCT-116 colon and in the assay with IGROV1 ovarian was above 100 µM each time. For the same molecule, the TGI was above 100 µM with LOX IMVI melanoma; 39 µM in the assay on NCI-H522 lung; above 100 µM with OVCAR-5 ovarian; above 100 µM in the assay with OVCAR-8 ovarian; above 100 µM in the assay with RXF 393 renal; above 100 µM in the assay with SF-295 CNS. In addition, the TGI in the assay with SN12C renal, in the assay on U251 CNS and in the assay on UACC-257 melanoma was above 100 µM throughout.
For `COc1cc(C(=O)O)cc2c1[nH]c1ccccc12`, the TGI with 786-0 renal, in the assay on A549 NSCLC, with COLO 205 colon, with DLD-1 colon, in the assay on HCT-116 colon and in the assay with IGROV1 ovarian was above 25 µM throughout. In addition, the TGI in the assay on LOX IMVI melanoma, in the assay with NCI-H522 lung, with OVCAR-5 ovarian, in the assay with OVCAR-8 ovarian, in the assay with SK-MEL-2 melanoma and in the assay with SN12C renal was above 25 µM each time. This molecule also gave a TGI in the assay on U251 CNS above 25 µM.
With `OC1C2CCC3C2CC(C(O)(c2ccccc2)c2ccccc2)C13` (stereo unspecified), the TGI with 786-0 renal was above 100 µM; in the assay on A549 NSCLC, above 100 µM; in the assay on COLO 205 colon, 37.2 µM; in the assay with DU-145 prostate it was above 100 µM; in the assay with HCT-116 colon, above 100 µM; with IGROV1 ovarian, above 100 µM. Further, the TGI with LOX IMVI melanoma, in the assay on MDA-MB-231 breast, in the assay on MDA-N, in the assay on NCI-H522 lung, with OVCAR-5 ovarian and with OVCAR-8 ovarian was above 100 µM throughout. Moreover, the TGI in the assay with PC-3 prostate is above 100 µM; in the assay with RXF 393 renal it was 96.6 µM; in the assay on SF-295 CNS, above 100 µM; in the assay with SK-MEL-2 melanoma, 48.2 µM; in the assay with SN12C renal, 47 µM; with U251 CNS it was above 100 µM. The TGI in the assay on UACC-257 melanoma was 95.6 µM.
In the case of `c1cc2c(cc1NC1=NCCO1)CCCC2`, the TGI with 786-0 renal was 16.7 µM; in the assay on A549 NSCLC, 39.9 µM; with COLO 205 colon, 3.8 µM; in the assay with DU-145 prostate it was 24.6 µM; with HCT-116 colon it was 16 µM; in the assay with IGROV1 ovarian, 23.5 µM. Further, the TGI in the assay with LOX IMVI melanoma came out at 11.1 µM; in the assay with MDA-MB-231 breast, 6.1 µM; with MDA-N it was 3.18 µM; in the assay with NCI-H522 lung, 18 µM; with OVCAR-5 ovarian it was 39.7 µM; in the assay on OVCAR-8 ovarian, 12.5 µM. Moreover, the TGI was 15.5 µM in the assay with PC-3 prostate; 14.2 µM with RXF 393 renal; 25.6 µM with SF-295 CNS; 11.4 µM in the assay on SK-MEL-2 melanoma; 36.6 µM with SN12C renal; 24.8 µM with U251 CNS. Besides, the TGI with UACC-257 melanoma is above 28.1 µM.
Consider `CC(=O)NC1C(O)C(O)C(CO)OC1n1nc(SCc2ccccc2)c(=O)[nH]c1=O` (stereo unspecified), for which the TGI in the assay with 786-0 renal, in the assay on A549 NSCLC, with COLO 205 colon, in the assay with DU-145 prostate, in the assay on HCT-116 colon and in the assay on IGROV1 ovarian was above 100 µM in each case. Besides, the TGI in the assay with LOX IMVI melanoma, in the assay with MDA-MB-231 breast, in the assay with MDA-N, with NCI-H522 lung, in the assay with OVCAR-5 ovarian and with OVCAR-8 ovarian was above 100 µM in each case. In addition, the TGI with PC-3 prostate, with RXF 393 renal, with SF-295 CNS, in the assay on SK-MEL-2 melanoma, with SN12C renal and in the assay on U251 CNS was above 100 µM each time. In the assay on UACC-257 melanoma, this molecule registered a TGI above 100 µM.
For the molecule `CC1(C)[C@H]2CC[C@](C)(C2)[C@]1(S)Cc1ccccn1`, the TGI in the assay on 786-0 renal, in the assay on A549 NSCLC, in the assay with COLO 205 colon, in the assay on DU-145 prostate, with HCT-116 colon and in the assay on IGROV1 ovarian was above 100 µM in each case. Besides, the TGI was 36.8 µM in the assay on LOX IMVI melanoma; above 100 µM in the assay with MDA-MB-231 breast; above 100 µM in the assay on MDA-N; above 100 µM with NCI-H522 lung; above 100 µM in the assay with OVCAR-5 ovarian; 42.6 µM with OVCAR-8 ovarian. The TGI in the assay with PC-3 prostate was 67.6 µM; in the assay with RXF 393 renal it was 80.2 µM; with SF-295 CNS, 98.8 µM; in the assay with SK-MEL-2 melanoma, 46.1 µM; in the assay with SN12C renal it was above 100 µM; with U251 CNS it was 36.6 µM. In the assay on UACC-257 melanoma, this molecule registered a TGI of 72.7 µM.
